# Values joined by “and” are separate entries in the source; they are usually repeats but may differ in a detail not shown here. Equal entries are not always repeated. Toxic doses and inconclusive results are not listed.
# Tested on: P388 leukemia ip, CD2F1 mice, survival T/C
# Test: NCI In Vivo Anticancer Drug Screen. Data for tumor model P388 Leukemia (intraperitoneal) in CD2F1 (CDF1) mice
# Conditions: endpoint: median survival time, higher = longer survival
# In short: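 Mice carrying the transplanted tumor received test compound or vehicle. Survival was recorded in each group, and the value is the treated-group measurement divided by that of the vehicle-treated control group.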
# [1] = dose: 60.0 mg/kg/injection, schedule: Q01DX005 (ip), vehicle: saline with Tween-80
# [2] = dose: 120.0 mg/kg/injection, schedule: Q01DX005 (ip), vehicle: saline with Tween-80
# [3] = dose: 240.0 mg/kg/injection, schedule: Q01DX005 (ip), vehicle: saline with Tween-80
# [4] = dose: 100.0 mg/kg/injection, schedule: Q04DX002 (ip), vehicle: saline with Tween-80
# [5] = dose: 200.0 mg/kg/injection, schedule: Q04DX002 (ip), vehicle: saline with Tween-80
# [6] = dose: 400.0 mg/kg/injection, schedule: Q04DX002 (ip), vehicle: saline with Tween-80
# [7] = dose: 50.0 mg/kg/injection, schedule: Q01DX005 (ip), vehicle: saline with Tween-80
# [8] = dose: 100.0 mg/kg/injection, schedule: Q01DX005 (ip), vehicle: saline with Tween-80
# [9] = dose: 200.0 mg/kg/injection, schedule: Q01DX005 (ip), vehicle: saline with Tween-80
# [10] = dose: 6.25 mg/kg/injection, schedule: Q01DX005 (ip), vehicle: saline with Tween-80
# [11] = dose: 12.5 mg/kg/injection, schedule: Q01DX005 (ip), vehicle: saline with Tween-80
# [12] = dose: 50.0 mg/kg/injection, schedule: Q01DX005 (ip), vehicle: Klucel (hydroxypropylcellulose) (HPC)
# [13] = dose: 100.0 mg/kg/injection, schedule: Q01DX005 (ip), vehicle: Klucel (hydroxypropylcellulose) (HPC)
# [14] = dose: 100.0 mg/kg/injection, schedule: Q01DX009 (ip), vehicle: saline
# [15] = dose: 200.0 mg/kg/injection, schedule: Q01DX009 (ip), vehicle: saline
# [16] = dose: 25.0 mg/kg/injection, schedule: Q01DX009 (ip), vehicle: saline with Tween-80
# [17] = dose: 100.0 mg/kg/injection, schedule: Q04DX003 (ip), vehicle: saline
# [18] = dose: 200.0 mg/kg/injection, schedule: Q04DX003 (ip), vehicle: saline
smiles,measurement,setting,value
CC(=O)[O-].[NH2-].[NH2-].[NH2-].[NH2-].[NH2-].[O-][Cl+3]([O-])([O-])O.[Ru+8],T/C,"dose: 3.13 mg/kg/injection, schedule: Q04DX003 (ip), vehicle: saline",118 % of control
same,T/C,"dose: 3.13 mg/kg/injection, schedule: Q04DX003 (ip), vehicle: water",99 % of control
same,T/C,"dose: 6.25 mg/kg/injection, schedule: Q04DX003 (ip), vehicle: saline",113 % of control
same,T/C,"dose: 6.25 mg/kg/injection, schedule: Q04DX003 (ip), vehicle: water",118 % of control
same,T/C,"dose: 12.5 mg/kg/injection, schedule: Q04DX003 (ip), vehicle: saline",111 % of control
same,T/C,"dose: 12.5 mg/kg/injection, schedule: Q04DX003 (ip), vehicle: water",120 % of control
Oc1ccc(Br)cc1C(c1ccc2c(c1)OCO2)N1CCOCC1 (centres undefined),T/C,[1],100 % of control
same,T/C,[2],101 % of control
same,T/C,[3],102 % of control
CCCCC/C([O-])=C1/C(=O)N(c2ccccc2)N=C1C.CCCCC/C([O-])=C1/C(=O)N(c2ccccc2)N=C1C.[Cu+2],T/C,[1],96 % of control
same,T/C,[2],101 % of control
COc1ccc2c(c1)NC(c1ccc(C(N)=S)cc1)N2 (centres undefined),T/C,[4],89 % of control
same,T/C,[5],87 % of control
same,T/C,[6],88 % of control
ClC(Cl)=C(Cl)Sc1ccccc1,T/C,[7],105 % of control
same,T/C,[8],105 % of control
same,T/C,[9],107 % of control
CNC(=S)N/N=C/c1nccc(-c2ccccc2)c1C,T/C,"dose: 200.0 mg/kg/injection, schedule: Q04DX003 (ip), vehicle: saline with Tween-80",107 % of control
CN(N=O)C(=O)NNC(=O)N(C)N=O,T/C,"dose: 15.0 mg/kg/injection, schedule: Q04DX003 (ip), vehicle: saline with Tween-80",105 % of control
same,T/C,"dose: 30.0 mg/kg/injection, schedule: Q01DX009 (ip), vehicle: saline with Tween-80",100 % of control
same,T/C,"dose: 30.0 mg/kg/injection, schedule: Q04DX003 (ip), vehicle: saline with Tween-80",110 % of control
same,T/C,"dose: 39.6 mg/kg/injection, schedule: Q04DX003 (ip), vehicle: saline with Tween-80",109 % of control
same,T/C,"dose: 60.0 mg/kg/injection, schedule: Q04DX003 (ip), vehicle: saline with Tween-80",113 % of control
Cc1ccnc(NS(=O)(=O)c2ccc(N=Cc3c4ccccc4nc4cc(Cl)ccc34)cc2)n1,T/C,[1],96 % of control
same,T/C,[2],93 % of control
same,T/C,[3],96 % of control
[N-]=[N+]=Nc1ccccc1C(=O)NCCNC(=O)c1ccccc1N=[N+]=[N-],T/C,[10],94 % of control
same,T/C,[11],91 % of control
same,T/C,[9],87 % of control
O=c1c(N=Nc2ccc(S(=O)(=O)Nc3nccs3)cc2)c(O)n(-c2ccccc2)n1-c1ccccc1,T/C,"dose: 12.5 mg/kg/injection, schedule: Q01DX009 (ip), vehicle: Klucel (hydroxypropylcellulose) (HPC)",88 % of control
same,T/C,"dose: 25.0 mg/kg/injection, schedule: Q01DX009 (ip), vehicle: Klucel (hydroxypropylcellulose) (HPC)",87 % of control and 93 % of control
same,T/C,"dose: 50.0 mg/kg/injection, schedule: Q01DX009 (ip), vehicle: Klucel (hydroxypropylcellulose) (HPC)",90 % of control and 91 % of control and 92 % of control
CCc1noc2cc(-c3ccccc3)n(C)c(=O)c12,T/C,[12],100 % of control
same,T/C,[13],104 % of control
same,T/C,"dose: 200.0 mg/kg/injection, schedule: Q01DX005 (ip), vehicle: Klucel (hydroxypropylcellulose) (HPC)",105 % of control
CN=C(c1ccc(NC(=O)c2ccc(C(=O)Nc3ccc(C(=NC)N4CCOCC4)cc3)cc2)cc1)N1CCOCC1,T/C,"dose: 6.25 mg/kg/injection, schedule: Q01DX005 (ip), vehicle: Klucel (hydroxypropylcellulose) (HPC)",105 % of control
same,T/C,"dose: 12.5 mg/kg/injection, schedule: Q01DX005 (ip), vehicle: Klucel (hydroxypropylcellulose) (HPC)",101 % of control
Cn1c(Cl)c(/C=N\Nc2ccc([N+](=O)[O-])cc2)c2ccccc21,T/C,"dose: 50.0 mg/kg/injection, schedule: Q01DX001 (ip), vehicle: Klucel (hydroxypropylcellulose) (HPC)",89 % of control
same,T/C,"dose: 100.0 mg/kg/injection, schedule: Q01DX001 (ip), vehicle: Klucel (hydroxypropylcellulose) (HPC)",89 % of control
same,T/C,"dose: 200.0 mg/kg/injection, schedule: Q01DX001 (ip), vehicle: Klucel (hydroxypropylcellulose) (HPC)",100 % of control
[CH2+][B-]1(C)n2cc(Br)c[n+]2[B-](C)(C)[n+]2cc(Br)cn21,T/C,[1],102 % of control
same,T/C,[2],103 % of control
same,T/C,[3],103 % of control
O=C(C1=C(Nc2ccccc2)CCC1)c1ccccc1,T/C,"dose: 50.0 mg/kg/injection, schedule: Q01DX009 (ip), vehicle: saline",116 % of control
same,T/C,[14],106 % of control
same,T/C,[15],106 % of control
Cc1ccc(OCC(COc2ccc(C)cc2)(COc2ccc(C)cc2)COc2ccc(C)cc2)cc1,T/C,"dose: 12.5 mg/kg/injection, schedule: Q01DX009 (ip), vehicle: saline with Tween-80",86 % of control
same,T/C,[16],86 % of control
same,T/C,"dose: 50.0 mg/kg/injection, schedule: Q01DX009 (ip), vehicle: saline with Tween-80",86 % of control
CSN(C)C(=O)Nc1cc(Cl)ccc1Cl,T/C,[17],107 % of control
same,T/C,[18],92 % of control
same,T/C,"dose: 400.0 mg/kg/injection, schedule: Q04DX003 (ip), vehicle: saline",92 % of control
C=CCC(O)CC1CC2CCCCN2O1 (centres undefined),T/C,"dose: 50.0 mg/kg/injection, schedule: Q04DX003 (ip), vehicle: saline",104 % of control
same,T/C,[17],104 % of control
same,T/C,[18],99 % of control
O=C(O)[C@H](Cc1ccccc1)N1C(=O)N[C@@H](Cc2ccccc2)C1=O,T/C,[1],96 % of control
same,T/C,[2],104 % of control
same,T/C,[3],99 % of control
Cc1cc(Cl)c2ccc(Cl)c(C)c2n1,T/C,[7],102 % of control
same,T/C,[8],104 % of control
same,T/C,[9],100 % of control
COc1cccc2c1C(=O)c1c(O)c(CCl)cc(O)c1C2=O,T/C,"dose: 3.75 mg/kg/injection, schedule: Q01DX005 (ip), vehicle: saline with Tween-80",99 % of control
same,T/C,"dose: 7.5 mg/kg/injection, schedule: Q01DX005 (ip), vehicle: saline with Tween-80",92 % of control
same,T/C,"dose: 15.0 mg/kg/injection, schedule: Q01DX005 (ip), vehicle: saline with Tween-80",89 % of control
Cc1cc(O)c(Cl)cc1Cl,T/C,[14],100 % of control
same,T/C,[15],99 % of control
same,T/C,"dose: 400.0 mg/kg/injection, schedule: Q01DX009 (ip), vehicle: saline",97 % of control
CCOC(=O)Cc1ccccn1,T/C,"dose: 100.0 mg/kg/injection, schedule: Q01DX009 (ip), vehicle: Klucel (hydroxypropylcellulose) (HPC)",109 % of control
same,T/C,"dose: 200.0 mg/kg/injection, schedule: Q01DX009 (ip), vehicle: Klucel (hydroxypropylcellulose) (HPC)",110 % of control
same,T/C,"dose: 400.0 mg/kg/injection, schedule: Q01DX009 (ip), vehicle: Klucel (hydroxypropylcellulose) (HPC)",119 % of control
CC1CCC(C(=O)C(Cl)Cc2ccccc2)CC1 (centres undefined),T/C,[12],88 % of control
same,T/C,[13],92 % of control
Cc1ccc(S(=O)(=O)OI(C#Cc2ccccc2)c2ccccc2)cc1,T/C,"dose: 77.5 mg/kg/injection, schedule: Q04DX002 (ip), vehicle: Klucel (hydroxypropylcellulose) (HPC)",99 % of control
same,T/C,"dose: 155.0 mg/kg/injection, schedule: Q04DX002 (ip), vehicle: Klucel (hydroxypropylcellulose) (HPC)",89 % of control
same,T/C,"dose: 310.0 mg/kg/injection, schedule: Q04DX002 (ip), vehicle: Klucel (hydroxypropylcellulose) (HPC)",99 % of control
O=C(/C=C/c1c(-c2ccccc2)[nH]c2ccccc12)c1cccc([N+](=O)[O-])c1,T/C,[1],98 % of control
same,T/C,[2],90 % of control
same,T/C,[3],90 % of control
O=Cc1c2cnc(c1O)CSCCCCSC2,T/C,[4],99 % of control
same,T/C,[5],96 % of control
same,T/C,[6],101 % of control
Nc1ccccc1C(=O)/C=C/c1ccccc1,T/C,[1],100 % of control
same,T/C,[2],100 % of control
same,T/C,[3],100 % of control
COc1cc(NS(=O)(=O)c2ccc(NC(C)c3ccc4cccnc4c3O)cc2)nc(OC)n1 (centres undefined),T/C,[1],98 % of control
same,T/C,[2],99 % of control
same,T/C,[3],96 % of control
Cc1cccc(C)c1N=CNc1c(C)cccc1C.[Cu+2],T/C,[16],101 % of control and 103 % of control and 118 % of control
CCCCCCCCCCCCCCCC1=NCCN1,T/C,[7],105 % of control
same,T/C,[8],107 % of control
CCC/C(=N\NC(=S)N1CCN(c2ccccn2)CC1)c1ccccn1,T/C,[10],102 % of control and 104 % of control
same,T/C,[11],107 % of control and 110 % of control
COc1cc(C(c2cc3c(cc2O)OCO3)N2CCOCC2)cc(OC)c1OC (centres undefined),T/C,[1],107 % of control
same,T/C,[2],111 % of control
